Series [1] relates to myelofibrosis patients. To be noted: cited from earlier work.
The subject of series [2] is CD34+ cells isolated from the bone marrow of two healthy donors. The series can be described thus: Megakaryocyte differentiation and proliferation, alone and with ruxolitinib, 10 days (FACS). Type of series: cell-based. To be noted: 240 h. The text has this:
The cells were then harvested for FACS analysis with live/dead stain and gating with CD34 (progenitor marker) and CD41a and CD42b (mature megakaryocyte markers).

Read-outs that look alike come from different tables or passages of the source.

As for `N#CC[C@H](C1CCCC1)n1cc(-c2ncnc3[nH]ccc23)cn1` [Ruxolitinib, (R)-3-(4-(7H-pyrrolo[2,3-d]pyrimidin-4-yl)-1H-pyrazol-1-yl)-3-cyclopentylpropanenitrile phosphate, reference compound], the “effect on mutant allele burden and bone marrow fibrosis” value in series [1] (Curr Hematol Malig Rep 2017) was “does not affect the mutant allele burden or bone marrow fibrosis”. Moreover, the “effect on red blood cell production and hemoglobin levels” value in series [1] (in vivo) is “known to decrease red blood cell production and hemoglobin levels”. The EC50 was determined as 517 nM in series [2] (10 days, Donor 1, percent of cells double positive for CD41a and CD42b, read-out: Megakaryocyte differentiation EC50); 312 nM in series [2] (10 days, Donor 1, read-out: Megakaryocyte live count EC50); 288 nM in series [2] (10 days, Donor 1, read-out: Total live count EC50); 676 nM in series [2] (10 days, Donor 1, read-out: Viability EC50); 535 nM in series [2] (10 days, Donor 2, percent of cells double positive for CD41a and CD42b, read-out: Megakaryocyte differentiation EC50); 258 nM in series [2] (10 days, Donor 2, read-out: Megakaryocyte live count EC50). In addition, the EC50 in series [2] (10 days, Donor 2, read-out: Total live count EC50) was found to be 259 nM; in series [2] (10 days, Donor 2, read-out: Viability EC50), 611 nM; in series [2] (10 days, Mean of two donors, read-out: Megakaryocyte differentiation EC50), 526 nM; in series [2] (10 days, Mean of two donors, read-out: Megakaryocyte live count EC50), 285 nM; in series [2] (10 days, Mean of two donors, read-out: Viability EC50) it was 644 nM; in series [2] (read-out: Total live count EC50 (overall cell proliferation)), 274 nM.
